Structures are written as SMILES.

For this assay, the target named is Phosphatidylinositol 4,5-bisphosphate 3-kinase catalytic subunit gamma isoform (Homo sapiens, UniProt P48736). Description: Biological Assay: The assay combines the scintillation proximity assay technology (SPA, Amersham) with the capacity of neomycin (a polycationic antibiotic) to bind phospholipids with high affinity and specificity. The Scintillation Proximity Assay is based on the properties of weakly emitting isotopes (such as 3H, 125I, 33P). Coating SPA beads with neomycin allows the detection of phosphorylated lipid substrates after incubation with recombinant PI3K and radioactive ATP in the same well, by capturing the radioactive phospholipids to the SPA beads through their specific binding to neomycin. Background: In a scintillation proximity assay essentially only radioactivity close to the scintillant gives light.
Sequence of Phosphatidylinositol 4,5-bisphosphate 3-kinase catalytic subunit gamma isoform (P48736 whole entry, canonical isoform): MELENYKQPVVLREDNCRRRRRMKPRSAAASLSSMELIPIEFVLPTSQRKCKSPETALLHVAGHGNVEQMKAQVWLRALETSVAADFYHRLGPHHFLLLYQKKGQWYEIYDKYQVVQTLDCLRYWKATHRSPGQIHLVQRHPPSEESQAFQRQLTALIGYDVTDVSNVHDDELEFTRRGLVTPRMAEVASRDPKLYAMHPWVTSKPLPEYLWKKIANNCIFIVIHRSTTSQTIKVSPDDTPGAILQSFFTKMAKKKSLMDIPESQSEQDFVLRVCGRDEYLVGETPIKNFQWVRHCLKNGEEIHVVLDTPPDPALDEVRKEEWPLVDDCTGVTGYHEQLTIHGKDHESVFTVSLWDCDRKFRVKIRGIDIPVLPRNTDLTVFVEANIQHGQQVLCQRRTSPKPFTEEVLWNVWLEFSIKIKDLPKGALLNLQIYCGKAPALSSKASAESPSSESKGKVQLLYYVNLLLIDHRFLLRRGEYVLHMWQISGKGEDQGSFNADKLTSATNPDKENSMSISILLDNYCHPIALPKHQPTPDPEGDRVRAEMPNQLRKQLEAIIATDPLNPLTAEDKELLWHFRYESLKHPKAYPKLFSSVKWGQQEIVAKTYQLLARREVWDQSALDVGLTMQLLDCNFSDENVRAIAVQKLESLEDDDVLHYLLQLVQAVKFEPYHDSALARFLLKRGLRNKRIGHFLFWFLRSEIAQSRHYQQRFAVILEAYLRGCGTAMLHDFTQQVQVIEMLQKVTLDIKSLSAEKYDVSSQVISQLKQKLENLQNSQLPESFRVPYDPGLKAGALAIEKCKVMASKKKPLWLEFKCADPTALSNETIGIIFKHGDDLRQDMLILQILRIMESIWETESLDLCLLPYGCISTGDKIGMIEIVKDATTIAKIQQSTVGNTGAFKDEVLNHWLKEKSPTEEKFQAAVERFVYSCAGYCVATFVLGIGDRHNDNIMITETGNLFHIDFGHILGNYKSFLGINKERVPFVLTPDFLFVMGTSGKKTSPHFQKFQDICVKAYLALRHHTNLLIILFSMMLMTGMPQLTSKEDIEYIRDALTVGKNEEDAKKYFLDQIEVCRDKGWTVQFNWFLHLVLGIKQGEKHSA

For orientation: IC50 means the concentration needed to halve the response being measured. With `COc1ccc(CC2CCOCC2)c(Nc2nc3ccccc3nc2NS(=O)(=O)c2ccc(CN(C)C)cc2)c1`, the IC50 was 30 nM.
